Values quoted from earlier work, collected in US6184255A, “Pharmaceutical composition comprising coenzyme Q10” (Kaneka Corporation, priority 1996, dated 2001).

Details: oral, considerably greater amount than actually needed

COC1=C(OC)C(=O)C(C/C=C(\C)CC/C=C(\C)CC/C=C(\C)CC/C=C(\C)CC/C=C(\C)CC/C=C(\C)CC/C=C(\C)CC/C=C(\C)CC/C=C(\C)CCC=C(C)C)=C(C)C1=O [Coenzyme Q10]
adverse gastrointestinal reactions: adverse gastrointestinal reactions such as epigastric discomfort, anorexia, nausea, and diarrheas
